Test results reported in patent publication US9809623B2, “α4β7 peptide monomer and dimer antagonists” (Protagonist Therapeutics, Inc., priority 2014, dated 2017).
Read-outs that look alike come from different tables or passages of the source. Numbered stars: 1 amine (or outer) side, 2 acyl side, 3 side chain; on linkers, the order of the positions; unused ones are H or OH. Bridge positions count the residues as written; N and C are the ends. Square brackets hold non-standard residues; d marks the D form. Peptide text beside a SMILES is read from it. I, II: the chains in the order shown. X1 = O=C(CCOCCOCCOCCOCCOCCOCCOCCOCCOCCOCCOCCOCCOCCOCCOCCOCCOCCOCCOCCOCCOCCOCCOCCOCCOCCOCCC(=O)[*:2])[*:1]; Phe(4-tBu) = CC(C)(C)c1ccc(C[C@H](N)C(=O)O)cc1; 2Nal = N[C@@H](Cc1ccc2ccccc2c1)C(=O)O; Diglycolyl = O=C(COCC(=O)[*:2])[*:1]; NMeR = CN[C@@H](CCCNC(=N)N)C(=O)O; β3hE = N[C@@H](CCC(=O)O)CC(=O)O; Pen = CC(C)(S)[C@H](N)C(=O)O

Columns and labels:
α4β1 [1] = target: T1, α4β1 (Homo sapiens, UniProt P05556+P13612, DEL729-798); assay: α4β1-VCAM Competition ELISA; type: binding; conditions: Table 3-B, Selectivity (α4β1); range classes; read-out: α4β1 ELISA IC50
T1 construct: purchased R&D Systems 5668-A4
T1 sequence (P13612 34-977 limits assumed, stated change not applied): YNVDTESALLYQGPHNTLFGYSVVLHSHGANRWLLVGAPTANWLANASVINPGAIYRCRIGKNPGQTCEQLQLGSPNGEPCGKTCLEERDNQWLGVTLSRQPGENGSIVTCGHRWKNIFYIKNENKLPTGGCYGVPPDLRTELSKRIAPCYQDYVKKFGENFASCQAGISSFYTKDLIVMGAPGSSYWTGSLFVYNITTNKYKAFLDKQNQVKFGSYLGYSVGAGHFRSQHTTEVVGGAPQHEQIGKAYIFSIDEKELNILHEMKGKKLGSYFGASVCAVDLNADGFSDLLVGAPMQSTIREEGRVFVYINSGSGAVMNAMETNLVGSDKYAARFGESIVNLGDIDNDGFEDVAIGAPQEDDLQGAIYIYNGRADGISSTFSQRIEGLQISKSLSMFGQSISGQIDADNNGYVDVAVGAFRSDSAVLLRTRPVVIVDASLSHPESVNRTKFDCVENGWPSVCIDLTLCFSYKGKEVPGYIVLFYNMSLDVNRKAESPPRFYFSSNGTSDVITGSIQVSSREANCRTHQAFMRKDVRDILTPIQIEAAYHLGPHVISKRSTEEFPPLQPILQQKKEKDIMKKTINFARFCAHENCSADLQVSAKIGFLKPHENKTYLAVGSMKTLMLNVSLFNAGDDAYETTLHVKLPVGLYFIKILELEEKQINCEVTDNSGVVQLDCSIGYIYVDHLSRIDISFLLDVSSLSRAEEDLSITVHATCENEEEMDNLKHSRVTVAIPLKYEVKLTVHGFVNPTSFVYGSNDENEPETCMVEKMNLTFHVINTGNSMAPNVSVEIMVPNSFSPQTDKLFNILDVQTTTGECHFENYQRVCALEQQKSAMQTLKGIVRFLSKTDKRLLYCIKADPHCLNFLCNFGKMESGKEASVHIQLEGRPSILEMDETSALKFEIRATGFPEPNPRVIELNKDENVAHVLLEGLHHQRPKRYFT
T1 sequence (P05556 21-728 limits assumed, stated change not applied): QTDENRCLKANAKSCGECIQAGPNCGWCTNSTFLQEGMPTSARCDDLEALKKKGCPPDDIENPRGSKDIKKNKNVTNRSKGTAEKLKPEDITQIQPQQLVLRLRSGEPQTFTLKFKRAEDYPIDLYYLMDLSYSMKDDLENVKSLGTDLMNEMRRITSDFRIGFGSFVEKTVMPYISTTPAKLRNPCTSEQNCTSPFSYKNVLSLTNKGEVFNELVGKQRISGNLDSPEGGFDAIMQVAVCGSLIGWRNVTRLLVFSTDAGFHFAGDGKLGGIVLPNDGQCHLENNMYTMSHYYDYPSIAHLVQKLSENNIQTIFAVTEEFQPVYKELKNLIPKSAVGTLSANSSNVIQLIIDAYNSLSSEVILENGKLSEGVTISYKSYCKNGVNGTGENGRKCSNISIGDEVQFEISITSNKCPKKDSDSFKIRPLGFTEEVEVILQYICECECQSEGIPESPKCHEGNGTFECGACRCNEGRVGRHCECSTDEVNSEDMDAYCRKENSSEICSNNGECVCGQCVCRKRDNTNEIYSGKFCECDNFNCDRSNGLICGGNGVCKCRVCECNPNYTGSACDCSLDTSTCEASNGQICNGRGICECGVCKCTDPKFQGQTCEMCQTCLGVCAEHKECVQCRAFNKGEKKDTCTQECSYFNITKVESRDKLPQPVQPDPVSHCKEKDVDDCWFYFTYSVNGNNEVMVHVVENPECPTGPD
Method in brief: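 Recombinant α4β1 (60 nM final) competed with serially diluted peptides (top final 100 μM) for VCAM-1 Fc coated at 400 ng/well, in Tris pH 7.6 with 1 mM MnCl2 or MgCl2, for 2 h at 37 °C. Bound integrin was detected with anti-CD49d 9F10 plus HRP anti-mouse IgG, using TMB read at 450 nm.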

α4β1 [2] = target: α4β1 (Homo sapiens, UniProt P05556+P13612); assay: α4β1-VCAM Cell Adhesion Assay (Jurkat E6.1 human cells); type: cell-based; set-up: host or cells: Jurkat E6.1 human T cells; conditions: Table 3-B, Selectivity (α4β1); range classes; read-out: α4β1 cell IC50
α4β1 (Homo sapiens, UniProt P05556+P13612), sequence (P13612 34-1032): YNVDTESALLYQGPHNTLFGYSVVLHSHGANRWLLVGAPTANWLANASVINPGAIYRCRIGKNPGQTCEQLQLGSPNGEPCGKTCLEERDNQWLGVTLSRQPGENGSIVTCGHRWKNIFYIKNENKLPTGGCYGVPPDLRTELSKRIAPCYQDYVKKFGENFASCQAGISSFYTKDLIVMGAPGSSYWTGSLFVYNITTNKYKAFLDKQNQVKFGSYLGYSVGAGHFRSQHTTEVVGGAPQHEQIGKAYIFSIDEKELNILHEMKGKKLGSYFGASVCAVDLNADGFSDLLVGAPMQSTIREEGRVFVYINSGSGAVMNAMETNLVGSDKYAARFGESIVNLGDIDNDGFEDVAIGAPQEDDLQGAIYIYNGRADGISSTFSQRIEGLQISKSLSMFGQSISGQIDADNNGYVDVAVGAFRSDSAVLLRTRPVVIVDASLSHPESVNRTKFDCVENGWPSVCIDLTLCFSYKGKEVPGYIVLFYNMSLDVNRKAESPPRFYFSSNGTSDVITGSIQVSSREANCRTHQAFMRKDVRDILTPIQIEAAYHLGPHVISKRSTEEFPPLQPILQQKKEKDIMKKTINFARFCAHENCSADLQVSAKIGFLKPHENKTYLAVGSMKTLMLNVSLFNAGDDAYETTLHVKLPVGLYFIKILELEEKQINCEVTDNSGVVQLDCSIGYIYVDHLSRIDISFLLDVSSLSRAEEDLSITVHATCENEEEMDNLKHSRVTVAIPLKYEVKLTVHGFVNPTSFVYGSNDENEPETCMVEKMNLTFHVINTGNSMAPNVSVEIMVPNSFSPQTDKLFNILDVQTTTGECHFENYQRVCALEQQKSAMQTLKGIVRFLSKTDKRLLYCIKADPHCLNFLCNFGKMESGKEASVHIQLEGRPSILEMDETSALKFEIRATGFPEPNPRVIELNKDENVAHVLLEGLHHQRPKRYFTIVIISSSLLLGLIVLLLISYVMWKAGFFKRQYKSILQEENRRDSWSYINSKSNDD
α4β1 (Homo sapiens, UniProt P05556+P13612), sequence (P05556 21-798): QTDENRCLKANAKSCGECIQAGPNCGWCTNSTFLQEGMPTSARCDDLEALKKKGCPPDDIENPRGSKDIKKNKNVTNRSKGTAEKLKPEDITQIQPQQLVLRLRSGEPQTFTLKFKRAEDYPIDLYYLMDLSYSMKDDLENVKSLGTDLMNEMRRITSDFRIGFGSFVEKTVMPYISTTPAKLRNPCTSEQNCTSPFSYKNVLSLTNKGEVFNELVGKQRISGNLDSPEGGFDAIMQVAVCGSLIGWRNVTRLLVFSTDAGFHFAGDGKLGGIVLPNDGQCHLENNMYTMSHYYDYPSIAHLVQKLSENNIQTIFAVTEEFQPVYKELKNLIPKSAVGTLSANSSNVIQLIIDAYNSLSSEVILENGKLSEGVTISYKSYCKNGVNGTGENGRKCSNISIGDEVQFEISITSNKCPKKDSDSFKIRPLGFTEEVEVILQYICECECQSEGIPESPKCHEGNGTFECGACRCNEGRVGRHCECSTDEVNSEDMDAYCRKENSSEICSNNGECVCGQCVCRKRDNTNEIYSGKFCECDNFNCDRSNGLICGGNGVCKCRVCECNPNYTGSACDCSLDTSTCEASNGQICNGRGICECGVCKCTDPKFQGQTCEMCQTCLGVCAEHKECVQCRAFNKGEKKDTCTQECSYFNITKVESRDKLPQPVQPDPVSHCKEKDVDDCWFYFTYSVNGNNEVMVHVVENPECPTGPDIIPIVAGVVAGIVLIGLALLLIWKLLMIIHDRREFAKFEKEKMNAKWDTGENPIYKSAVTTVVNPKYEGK
Protocol: Jurkat E6.1 human cells (Sigma #88042803) were cultured in RPMI 1640 HEPES medium (Invitrogen #22400-089) supplemented with 10% serum (Fetal Bovine Serum, Invitrogen #16140-071), 1 mM sodium pyruvate (Invitrogen #11360-070), 2 mM L-glutamine (Invitrogen #25030-081) and Penicillin-Streptomycin (Invitrogen #15140-122) at 100 units of penicillin and 100 μg of streptomycin per ml. The cells were washed two times in DMEM medium (ATCC #30-2002) supplemented with 0.1% BSA, 10 mM HEPES pH 7 and 1 mM MnCl2. The cells were re-suspended in supplemented DMEM medium at a density of 4×10^6 cells/ml.
A Nunc MaxiSorp plate was coated with rh VCAM-1/CD106 Fc chimera (R&D #862-VC) at 400 ng per well in 50 ul per well in 1×PBS and incubated at 4° C. overnight. The solution was then removed by shaking, blocked with 250 ul per well PBS containing 1% BSA, and incubated at 37° C. for 1 hr. The solution was removed by shaking. Peptides were diluted by serial dilution in a final volume of 50 ul per well (2× concentration). To each well, 50 ul of cells (200,000 cells) were added and the plate was incubated at 37° C., 5% CO2 for 30-45 min to allow cell adhesion. The wells were washed manually three times (100 ul per wash) with supplemented DMEM. After the final wash, 100 ul/well of supplemented DMEM and 10 ul/well of MTT reagent (ATTC cat#30-1010K) were added. The plate was incubated at 37° C., 5% CO2 for 2-3 hrs until a purple precipitate was visible. 100 ul of Detergent Reagent (ATTC cat#30-1010K) was added to each well. The plate was covered from the light, wrapped in Parafilm to prevent evaporation, and left overnight at room temperature in the dark. The plate was shaken for 5 min and the absorbance at 570 nm was measured. To calculate the dose response, the absorbance value of control wells not containing cells was subtracted from each test well.

α4β7 [3] = target: T2, α4β7 (Homo sapiens, UniProt P13612+P26010); assay: PBMC Memory T Cell Adhesion Assay, adhesion to MAdCAM-1; type: cell-based; conditions: Table 3-B; range classes; read-out: PBMC IC50
T2 sequence (P13612 34-1032): as the sequence (P13612 34-1032) above
T2 sequence (P26010 20-798): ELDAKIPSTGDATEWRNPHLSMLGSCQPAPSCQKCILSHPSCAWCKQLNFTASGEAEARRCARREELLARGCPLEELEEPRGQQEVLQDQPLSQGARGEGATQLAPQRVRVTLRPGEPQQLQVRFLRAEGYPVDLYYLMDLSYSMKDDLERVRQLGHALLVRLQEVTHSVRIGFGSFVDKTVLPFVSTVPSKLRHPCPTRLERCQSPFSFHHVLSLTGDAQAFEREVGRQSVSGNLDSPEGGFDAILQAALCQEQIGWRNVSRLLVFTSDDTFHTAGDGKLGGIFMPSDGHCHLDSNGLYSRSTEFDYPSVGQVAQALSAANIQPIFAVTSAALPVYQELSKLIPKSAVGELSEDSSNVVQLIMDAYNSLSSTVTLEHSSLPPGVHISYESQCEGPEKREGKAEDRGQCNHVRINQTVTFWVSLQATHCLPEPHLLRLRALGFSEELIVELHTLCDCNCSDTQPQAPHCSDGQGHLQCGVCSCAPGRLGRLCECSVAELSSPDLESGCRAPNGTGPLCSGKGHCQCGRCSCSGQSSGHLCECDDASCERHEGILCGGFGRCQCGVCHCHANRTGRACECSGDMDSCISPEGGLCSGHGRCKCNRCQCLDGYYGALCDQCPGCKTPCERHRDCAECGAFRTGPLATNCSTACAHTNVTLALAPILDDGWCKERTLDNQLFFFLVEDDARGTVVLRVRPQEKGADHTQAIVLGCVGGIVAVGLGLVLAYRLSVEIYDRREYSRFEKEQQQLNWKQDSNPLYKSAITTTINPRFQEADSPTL
Protocol: Fresh CD4+/CD45RO+ memory T cells were isolated from human peripheral blood mononuclear cell (PBMC) donors by Aragen Bioscience Inc. (Morgan Hill, Calif.). The assay plate was prepared using IgG Fc capture antibody (donkey anti human) immobilized at 500 ng/well in 50 mM sodium bicarbonate buffer, pH 9.5, ON, 4C onto a Greiner Fluotrac plate (100 ul per well). The plate was rinsed two time with Blocking Buffer (25 mM Tris HCl, pH7.5, 150 mM NaCl, 1.5% BSA, 0.05% Tween), and blocked with Blocking Buffer for 2 hours at 37 C or 5 hours at RT using 200 ul per well. The Blocking Buffer was removed and either MAdCAM-1 or VCAM-1 at 400 ng/well in Blocking Buffer was added and the plate incubated overnight at 4C (100 ul per well). The plate was washed two times with Blocking Buffer, and rinsed once with 200 ul Binding Media (DMEM phenol red free, 10 mM HEPES, 1×Na pyruvate, 1× Glutamine, and supplemented with 1 mM MnCl2 prior to use). To prepare cells, approximately 25 million CD4+/CD45RO+ memory T cells were counted by trypan blue exclusion using a haemocytometer to determine viability and cell count. The cells were transferred to a 50 ml conical tube, and centrifuged at 1200 rpm for 10 minute. The media was aspirated and the cell pellet resuspended in 15 ml Binding Media. The cells were centrifuged again and resuspended in the appropriate amount of Binding Media to be used for assays (50 ul of cells per well at 2× the final density). To each well, and equal volume (50 ul) of test compound was added and the plate was incubated for 1.5 hours at 37 C, 5% CO2. Each well was rinsed 3× with 150 ul per well of Binding Media. […] The plate was incubated at 37 C, 5% CO2, for 45 minutes. The plate was protected from light by using black adhesive seals. Fluorescence intensity was measured using a Molecular Devices Gemini EM Fluorescent Plate Reader (Ex 485/Em530, Bottom Read, Reading Sensitivity=20). IC50 curves are generated using Graph Pad Prism and the curves analyzed using analyzed using a non-linear regression (four parameters) algorithm. The log (concentration) versus RFU (Ex485/Em530) was plotted to determine IC50 values.

[4] = Simulated Intestinal Fluid (SIF) Stability Assay; type: in vitro ADME, porcine; conditions: pig, simulated intestinal fluid (SIF) with 1% porcine pancreatin
Method in brief: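 Peptides (22 μM final) incubated at 37 °C in FASSIF (pH 6.5) with 1% porcine pancreatin; aliquots quenched at various times and analyzed by LC-MS/MS against internal standard. Half-life from first-order exponential decay fit of percent remaining.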

α4β7 [5] = target: T2, α4β7; assay: α4β7-MAdCAM Cell Adhesion Assay (RPMI 8866 human cells); type: cell-based; set-up: host or cells: RPMI 8866 human B lymphoblastoid cells; conditions: Table 3-B, Potency (α4β7); range classes; read-out: α4β7 cell (Hu) IC50
Method in brief: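 Washed RPMI 8866 cells (200,000/well) in DMEM with 0.1% BSA, 10 mM HEPES pH 7, 1 mM MnCl2 adhered to rh MAdCAM-1/Fc-coated wells with serially diluted peptides, 30-45 min at 37 °C. After three washes, bound cells quantified by MTT, A570, cell-free background subtracted for dose response.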

[6] = Simulated Gastric Fluid (SGF) Assay; type: in vitro ADME; conditions: pig, simulated gastric fluid (SGF) with porcine pepsin, pH 2; Table 4-C, t1/2
Protocol: SGF was prepared by adding 20 mg NaCl, 32 mg porcine pepsin (MP Biochemicals, catalog 02102599), and 70 μl HCl to 10 ml water (final pH=2). Aliquots of SGF (0.5 ml each) were pre-warmed at 37° C. For each peptide tested, to start the reaction, 1 μl of peptide stock solution (10 mM in DMSO) was added to 0.5 ml SGF and thoroughly mixed such that the final peptide concentration was 20 μM. The reactions were incubated at 37° C. with gentle shaking. At each time point (0, 15, 30, 60 min), 50 μl aliquots were removed and added to 200 ul acetonitrile containing 0.1% formic acid to quench the reaction. Samples were stored at 4° C. until the end of the experiment and centrifuged at 10,000 rpm for 5 minutes. Aliquots of the supernatant were removed, diluted 1:1 into distilled water containing internal standard, and analyzed by LCMS/MS. Percent remaining at each timepoint was calculated based on the peak area response ratio of test compound to internal standard. Time 0 was set to 100%, and all later timepoints were calculated relative to time 0. Half-lives were calculated by fitting to a first-order exponential decay equation using GraphPad.

Plasma Stability Assay = type: in vitro ADME; conditions: rat, Table 4-C, t1/2
Protocol: 0.5 mL of rat plasma (one tube per peptide, volume depends on how many time points are to be collected, 50 μL per time point) was added to each well of a 96-well polypropylene plate, and the tubes were incubated in a heated water bath, preset to 37° C. with gentle shaking. 1 μL of 10 mM peptide stock solution was added to each tub, and then 200 μL of Acetonitrile w/0.1% Formic Acid was added to each tube (1:4). Samples were collected at the following time points: 0, 10, 30, 45, 60, 120, 180 mins. When all time points were collected, the plate was centrifuged at 5000 rpm for 5 mins. LCM analysis was performed by pipetting 100 μL of each sample to appropriate well of a 96-well deep plate. 100 μL of an internal standard peptide (1 ug/mL) was added in Mobile Phase A to each well. The plate was vortexed and injected

rh integrin α4β7 = target: T3, rh integrin α4β7 (Homo sapiens, UniProt P13612+P26010); assay: α4β7-MAdCAM Competition ELISA; type: binding; conditions: Table 4-B; read-out: ELISA α4β7 IC50
T3 construct: purchased R&D Systems 5397-A30
T3 sequence (P13612 34-977 limits assumed): as the sequence (P13612 34-977 limits assumed, stated change not applied) above
T3 sequence (P26010 20-723 limits assumed): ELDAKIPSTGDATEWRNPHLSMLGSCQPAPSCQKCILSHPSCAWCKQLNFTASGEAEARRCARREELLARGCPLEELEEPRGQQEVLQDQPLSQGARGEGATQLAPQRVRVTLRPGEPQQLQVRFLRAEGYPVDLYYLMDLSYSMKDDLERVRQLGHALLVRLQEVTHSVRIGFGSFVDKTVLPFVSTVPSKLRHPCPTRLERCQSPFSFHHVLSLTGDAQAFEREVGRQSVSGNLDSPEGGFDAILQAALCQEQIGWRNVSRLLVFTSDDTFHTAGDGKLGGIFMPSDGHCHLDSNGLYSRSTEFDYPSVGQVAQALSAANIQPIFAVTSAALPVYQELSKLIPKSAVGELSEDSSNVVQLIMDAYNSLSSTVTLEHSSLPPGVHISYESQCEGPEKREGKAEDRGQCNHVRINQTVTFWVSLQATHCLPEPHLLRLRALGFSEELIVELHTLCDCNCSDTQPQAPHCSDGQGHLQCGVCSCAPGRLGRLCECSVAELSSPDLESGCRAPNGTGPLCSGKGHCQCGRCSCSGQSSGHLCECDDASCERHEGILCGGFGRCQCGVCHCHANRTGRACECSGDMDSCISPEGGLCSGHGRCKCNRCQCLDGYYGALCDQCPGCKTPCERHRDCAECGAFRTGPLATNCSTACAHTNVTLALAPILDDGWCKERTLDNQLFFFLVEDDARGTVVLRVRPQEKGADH
Method in brief: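 Recombinant human α4β7 was captured on nickel plates at 800 ng/well. Peptide in 3-fold serial dilution (final top 10 μM) competed with MAdCAM-1 (final 10 nM) for 1 h at room temperature in 50 mM Tris pH 7.6, 150 mM NaCl, 1 mM MnCl2 or MgCl2. Bound MAdCAM-1 was detected with anti-human IgG1-HRP/TMB at A450.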

[7] = Dithiothreitol (DTT) Redox Stability Assay; type: physicochemical; conditions: Table 4-C, t1/2, 0.5 mM DTT
Protocol: For each peptide tested, the DTT stability assay was conducted by adding 5 μl of a 10 mM peptide stock solution in DMSO to 1 ml of 100 mM Tris-Cl, pH 7.5 (final peptide concentration is 50 μM). At time 0 min, 5 ul of a freshly thawed 100 mM DTT solution was added to the incubation tube containing the peptide, such that the final DTT concentration was 0.5 mM. The reactions were incubated at room temperature. At different time points up to 120 minutes (20 min, 40 min, 80 min, 120 min), 50 ul aliquots were removed, and the reaction was quenched by adding 10 μl of 5M acetic acid. To measure disappearance of the parent peptide, the quenched samples (30 μl) were analyzed by reverse phase HPLC and UV absorbance at 220 nm. The fraction oxidized remaining was graphed versus time, and half-lives were calculated by fitting to a first-order exponential decay equation using Excel.

[8] = pH 6.5, Table 4-C, t1/2, > means assay stopped at that time, read-out: SIF (porcine) Min

Compound: CC(=O)N[C@@H]1C(=O)N(C)[C@@H](CCCNC(=N)N)C(=O)N[C@@H](CO)C(=O)N[C@@H](CC(=O)O)C(=O)N[C@@H]([C@@H](C)O)C(=O)N[C@@H](CC(C)C)C(=O)N[C@H](C(=O)N[C@@H](Cc2ccc3ccccc3c2)C(=O)N[C@H](CCC(=O)O)C(=O)N[C@H](CCCCNC(=O)COCC(=O)NCCCC[C@@H](NC(=O)[C@@H](CCC(=O)O)NC(=O)[C@H](Cc2ccc3ccccc3c2)NC(=O)[C@H]2NC(=O)[C@H](CC(C)C)NC(=O)[C@H]([C@@H](C)O)NC(=O)[C@H](CC(=O)O)NC(=O)[C@H](CO)NC(=O)[C@H](CCCNC(=N)N)N(C)C(=O)[C@@H](NC(C)=O)C(C)(C)SSC2(C)C)C(N)=O)C(N)=O)C(C)(C)SSC1(C)C [compound 33] (I: Ac-[Pen][NMeR]SDTL[Pen][2Nal][dE][dK]-NH2 / II: Ac-[Pen][NMeR]SDTL[Pen][2Nal][dE][dK]-NH2; disulfide I:1-I:7, II:1-II:7; linker I:10-II:10 via Diglycolyl)
- IC50 (α4β1 [1]): 100 to 500 nM
- IC50 (α4β1 [2]): > 100000 nM

Compound: CC(=O)N[C@@H]1C(=O)N(C)[C@@H](CCCNC(=N)N)C(=O)N[C@@H](CO)C(=O)N[C@@H](CC(=O)O)C(=O)N[C@@H]([C@@H](C)O)C(=O)N[C@@H](CC(C)C)C(=O)N[C@H](C(=O)N[C@@H](Cc2ccc(C(C)(C)C)cc2)C(=O)N[C@@H](CCC(=O)O)CC(N)=O)C(C)(C)SSC1(C)C [compound 165] (Ac-[Pen][NMeR]SDTL[Pen][Phe(4-tBu)][β3hE]-NH2; disulfide 1-7)
- IC50 (α4β7 [3]): 100 to 500 nM
- half-life at 22 μM ([4]; pH 6.5, Table 3-B, > means experiment was stopped at that time and half life was not reached, read-out: Stabilty SIF t1/2): > 180 min
- IC50 (α4β7 [5]): 10 to 25 nM

Compound: CC(=O)N[C@H]1CSSC[C@@H](C(=O)N[C@@H](CCCCNC(=O)CCOCCOCCOCCOCCOCCOCCOCCOCCOCCOCCOCCOCCOCCOCCOCCOCCOCCOCCOCCOCCOCCOCCOCCOCCOCCOCCC(=O)NCCCC[C@H](NC(=O)[C@@H]2CSSC[C@H](NC(C)=O)C(=O)N(C)[C@@H](CCCNC(=N)N)C(=O)N[C@@H](CO)C(=O)N[C@@H](CC(=O)O)C(=O)N[C@@H]([C@@H](C)O)C(=O)N[C@@H](CC(C)C)C(=O)N2)C(=O)O)C(=O)O)NC(=O)[C@H](CC(C)C)NC(=O)[C@H]([C@@H](C)O)NC(=O)[C@H](CC(=O)O)NC(=O)[C@H](CO)NC(=O)[C@H](CCCNC(=N)N)N(C)C1=O [compound 200, (Ac-C-N-Me-R-S-D-T-L-C-K-OH)2-PEG25] (I: Ac-C[NMeR]SDTLCK-OH / II: Ac-C[NMeR]SDTLCK-OH; disulfide I:1-I:7, II:1-II:7 (inferred); linker I:8-II:8 via X1 (inferred))
- half-life at 22 μM [4, 8]: 8 min
- half-life at 20 μM [6]: > 360 min
- half-life at 20 μM (Plasma Stability Assay): 88 min

Compound: CC(=O)N[C@@H]1C(=O)N[C@@H](CCCNC(=N)N)C(=O)N[C@@H](CO)C(=O)N[C@@H](CC(=O)O)C(=O)N[C@@H]([C@@H](C)O)C(=O)N[C@@H](CC(C)C)C(=O)N[C@H](C(=O)N[C@H](CCCCN)C(N)=O)CSSC1(C)C [compound 206, Ac-Pen-R-S-D-T-L-C-k-NH2] (Ac-[Pen]RSDTLC[dK]-NH2; disulfide 1-7)
- IC50 (rh integrin α4β7): 97 nM
- half-life at 22 μM [4, 8]: 26 min
- DTT Min [7]: 52 min
